Source: PubChem BioAssay AID220 (DTP/NCI, 2004)
Where “and” joins values, the source holds several entries; their conditions need not be identical. Equal entries are not always repeated. Records with an inconclusive call do not appear.

Test system: CD8F1 mice, subcutaneous mammary adenocarcinoma, T/C%
Test: NCI In Vivo Anticancer Drug Screen. Data for tumor model Mammary Adenocarcinoma CD8F1 (subcutaneous) in CD8F1
Conditions: higher = larger tumour
How it was run: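 Compound-treated versus vehicle-treated mice with transplantable tumors; survival or tumor size compared as T/C.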

N#CCCN(C(=S)Nc1cccc(C(F)(F)F)c1)C1CCCCC1 was tested, and the T/C (endpoint: median tumor weight (est.), dose: 25.0 mg/kg/injection, schedule: Q07DX005 (ip), vehicle: Klucel (hydroxypropylcellulose) (HPC)) was 66 % of control, the T/C (endpoint: median tumor weight (est.), dose: 50.0 mg/kg/injection, schedule: Q07DX005 (ip), vehicle: Klucel (hydroxypropylcellulose) (HPC)) was 116 % of control and the T/C (endpoint: median tumor weight (est.), dose: 100.0 mg/kg/injection, schedule: Q07DX005 (ip), vehicle: Klucel (hydroxypropylcellulose) (HPC)) was 75 % of control. The T/C (endpoint: median tumor weight (est.), dose: 200.0 mg/kg/injection, schedule: Q07DX005 (ip), vehicle: Klucel (hydroxypropylcellulose) (HPC)) was 60 % of control, the T/C (endpoint: median tumor weight (est.), dose: 400.0 mg/kg/injection, schedule: Q07DX005 (ip), vehicle: Klucel (hydroxypropylcellulose) (HPC)) was 38 % of control and the T/C (endpoint: median tumor weight (est.), dose: 800.0 mg/kg/injection, schedule: Q07DX005 (ip), vehicle: Klucel (hydroxypropylcellulose) (HPC)) was 60 % of control.
With O=P(O)(NCCCl)NCCCl the T/C (endpoint: median tumor weight change, dose: 25.0 mg/kg/injection, schedule: Q01DX001 (ip), vehicle: saline) was 49 % of control, the T/C (endpoint: median tumor weight change, dose: 50.0 mg/kg/injection, schedule: Q01DX001 (ip), vehicle: saline) was 97 % of control and the T/C (endpoint: median tumor weight change, dose: 50.0 mg/kg/injection, schedule: Q01DX001 (ip), vehicle: suspension in saline) was -39 % of control. The T/C (endpoint: median tumor weight change, dose: 100.0 mg/kg/injection, schedule: Q01DX001 (ip), vehicle: saline) was 41 % of control and the T/C (endpoint: median tumor weight change, dose: 200.0 mg/kg/injection, schedule: Q01DX001 (ip), vehicle: saline) was -56 % of control.
For C1OCN2CSCC12 (stereo not given), the T/C (endpoint: median tumor weight change, dose: 125.0 mg/kg/injection, schedule: Q01DX001 (ip), vehicle: saline with Tween-80) was 90 % of control, the T/C (endpoint: median tumor weight change, dose: 250.0 mg/kg/injection, schedule: Q01DX001 (ip), vehicle: saline with Tween-80) was 71 % of control and the T/C (endpoint: median tumor weight change, dose: 500.0 mg/kg/injection, schedule: Q01DX001 (ip), vehicle: saline with Tween-80) was 82 % of control.
For CCCCNC(C)[C@]1(O)Cc2c(O)c3c(c(O)c2[C@@H](OC2CC(N)C(O)C(C)O2)C1)C(=O)c1c(OC)cccc1C3=O (stereo not given in full), the T/C (endpoint: median tumor weight (est.), dose: 2.67 mg/kg/injection, schedule: Q07DX005 (ip), vehicle: water) was 89 % of control, the T/C (endpoint: median tumor weight (est.), dose: 4.0 mg/kg/injection, schedule: Q07DX005 (ip), vehicle: water) was 74 % of control and the T/C (endpoint: median tumor weight (est.), dose: 6.0 mg/kg/injection, schedule: Q07DX005 (ip), vehicle: water) was 47 % of control.
Cl was tested, and the T/C (endpoint: median tumor weight (est.), dose: 25.0 mg/kg/injection, schedule: Q07DX005 (ip), vehicle: saline) was 93 % of control, the T/C (endpoint: median tumor weight (est.), dose: 50.0 mg/kg/injection, schedule: Q07DX005 (ip), vehicle: saline) was 91 % of control and the T/C (endpoint: median tumor weight (est.), dose: 100.0 mg/kg/injection, schedule: Q07DX005 (ip), vehicle: saline) was 67 % of control. The T/C (endpoint: median tumor weight (est.), dose: 200.0 mg/kg/injection, schedule: Q07DX005 (ip), vehicle: saline) was 93 % of control and the T/C (endpoint: median tumor weight (est.), dose: 400.0 mg/kg/injection, schedule: Q07DX005 (ip), vehicle: saline) was 48 % of control.
In the case of CC(=O)c1cccc(NC2C(N)C(NC(=O)N(C)C)(C(C)O)C(C)(O)C2(O)COC(=O)c2c(C)cccc2O)c1 (stereo not given), the T/C (endpoint: median tumor weight (est.), dose: 1.0 mg/kg/injection, schedule: Q07DX005 (ip), vehicle: suspension in saline) is reported as 162 % of control, the T/C (endpoint: median tumor weight (est.), dose: 1.8 mg/kg/injection, schedule: Q07DX005 (ip), vehicle: saline with Tween-80) is reported as 67 % of control and 77 % of control and the T/C (endpoint: median tumor weight (est.), dose: 2.0 mg/kg/injection, schedule: Q07DX005 (ip), vehicle: suspension in saline) is reported as 78 % of control. The T/C (endpoint: median tumor weight (est.), dose: 3.6 mg/kg/injection, schedule: Q07DX005 (ip), vehicle: saline with Tween-80) was 72 % of control and 93 % of control, the T/C (endpoint: median tumor weight (est.), dose: 4.0 mg/kg/injection, schedule: Q07DX005 (ip), vehicle: suspension in saline) was 78 % of control and the T/C (endpoint: median tumor weight (est.), dose: 7.2 mg/kg/injection, schedule: Q07DX005 (ip), vehicle: saline with Tween-80) was 55 % of control and 78 % of control. The T/C (endpoint: median tumor weight (est.), dose: 8.0 mg/kg/injection, schedule: Q07DX005 (ip), vehicle: suspension in saline) was 119 % of control and the T/C (endpoint: median tumor weight (est.), dose: 14.4 mg/kg/injection, schedule: Q07DX005 (ip), vehicle: saline with Tween-80) was 23 % of control and 44 % of control.
